According to patent US11617777B2, “Cytotoxic and anti-mitotic compounds, and methods of using the same” (ZYMEWORKS BC INC., priority 2013, dated 2023):
pEC50: −log10 of the molar value. Where two headings read alike, the source gives them in different places.

System: Jurkat cells
Test: Cytotoxicity of compounds, CellTiter-Glo
Type: cell-based, Human
Details: read-out: EC50
Description: Cell lines used: Human T-cell leukemia cell line Jurkat (ATCC: TIB-152); HCC1954 (ATCC: CRL. 2338); Human Pancreatic cells lines: AsPC-1 (ATCC: CRL-1682), BxPC-3 (ATCC: CRL.1687), HPAF-II (ATCC: CRL.1997), MiaPaCa2 (ATCC: CRL.1420), PANC-1 (ATCC: CRL.1469), Capan-1 (ATCC: HTB-79), Capan-2 (ATCC: HTB-80) and the Human gastric carcinoma cell line NCI-N87 (ATCC: CRL. 5822); AML-193 (ATCC: CRL.9589), CCRF-CEM (ATCC: CCL-119), DU145 (ATCC: HTB-81), PC-3 (ATCC: CRL.1435), A-431 (ATCC: CRL.1555), HT-29 (ATCC: HTB-38), A-172 (ATCC: CRL.1620), NCI-H358 (ATCC: CRL.5807), A549 (ATCC: CCL-185), Colo-205 (ATCC: CCL-222), MDA-MB-231 (ATCC: HTB-26), OVCAR-3 (ATCC: HTB-161), OV-90 (ATCC: CRL.11732), OE19 (Sigma: 96071721), RT 112/84 (Sigma: 85061106).
On the day prior to adding compounds, HCC1954 AsPC-1, BxPC-3, HPAF-II, MiaPaCa2, PANC-1, Capan-1, Capan-2 and NCI-N87 cells were added to opaque-walled 96-well tissue culture-treated microtiter plates using complete growth medium at a density of 2500 cells/100 microlitre (uL) of medium. These adherant cell lines cells were incubated for one night at 37° C./5% CO2 to allow the cells to attach to the microtiter plate surface. On the day that compounds were added, Jurkat cells are added to separate 96-well microtiter plates at 2500 cells/100 uL using the same growth medium as HCC1954. Compound were first serially diluted using dimethyl sulfoxide, and then the prepared dilutions are added to complete growth medium at five-times the final concentration—compounds were then titrated 1:3, eight steps. A control with no compound (growth medium alone) was included on each microtiter plate in sextuplicate. The prepared compounds titrations were added (twenty-five uL/well) in triplicate. The cells and compound titrations were incubated at 37° C./5% CO2 for three nights. After the incubation, cell viability is measured using CellTiter-Glo® reagent by adding thirty uL of prepared CellTiter-Glo® to each assay well. The assay is incubated for at least twenty minutes in the dark prior to measuring emitted luminescence using a microplate luminometer (500 ms integration time). The collected relative luminescence units (RLU) are converted to % cytotoxicity using the Growth medium alone control mentioned above (% Cytotoxicity=1−[Well RLU/average medium alone control RLU]).
GraphPad Prism was used for generation of EC50 values using three parameter non-linear regression curve fitting.

[1] = Homo sapiens, Jurkat, Table 3, Cytotoxicity of Compounds on Jurkat Cells
[2] = Homo sapiens, Jurkat, Table 6, Compound Cytotoxicity on Jurkat
[3] = Homo sapiens, Jurkat, Table 7, Cytotoxicity on Jurkat

Compound | pEC50 [2] | further results
CN[C@H](C(=O)N[C@H](C(=O)N(C)[C@H](/C=C(\C)C(=O)NS(=O)(=O)c1cc(C(=O)OC)ccc1Cl)C(C)C)C(C)(C)C)C(C)(C)c1ccccc1 [Compound 74, methyl 4-chloro-3-(N—((S,E)-2,5-dimethyl-4-((S)—N,3,3-trimethyl-2-((S)-3-methyl-2-(methylamino)-3-phenylbutanamido)butanamido)hex-2-enoyl)sulfamoyl)benzoate] | – | pEC50 [1]: 10.06
CN[C@H](C(=O)N[C@H](C(=O)N(C)[C@H](/C=C(\C)C(=O)NS(=O)(=O)Cc1ccc(CNC(=O)C(F)(F)F)cc1)C(C)C)C(C)(C)C)C(C)(C)c1ccccc1 [Compound 76, (S,E)-2,5-dimethyl-N-(4-((2,2,2-trifluoroacetamido)methyl)benzylsulfonyl)-4-((S)—N,3,3-trimethyl-2-((S)-3-methyl-2-(methylamino)-3-phenylbutanamido)butanamido)hex-2-enamide] | – | pEC50 [1]: 9.48
CN[C@H](C(=O)N[C@H](C(=O)N(C)[C@H](/C=C(\C)C(=O)NS(=O)(=O)c1ccc(CNC(=O)C(F)(F)F)cc1)C(C)C)C(C)(C)C)C(C)(C)c1ccccc1 [Compound 84, (S,E)-2,5-dimethyl-N-(4-((2,2,2-trifluoroacetamido)methyl)phenylsulfonyl)-4-((S)—N,3,3-trimethyl-2-((S)-3-methyl-2-(methylamino)-3-phenylbutanamido)butanamido)hex-2-enamide] | – | pEC50 [1]: 8.86
CN[C@H](C(=O)N[C@H](C(=O)N(C)[C@H](/C=C(\C)C(=O)NS(=O)(=O)Cc1ccccc1)C(C)C)C(C)(C)C)C(C)(C)c1ccc(-c2ccc(OC)cc2)cc1 [Compound 88, (S,E)-N-(benzylsulfonyl)-4-((S)-2-((S)-3-(4′-methoxybiphenyl-4-yl)-3-methyl-2-(methylamino)butanamido)-N,3,3-trimethylbutanamido)-2,5-dimethylhex-2-enamide] | 9.19 | –
CN[C@H](C(=O)N[C@H](C(=O)N(C)[C@H](/C=C(\C)C(=O)NS(=O)(=O)Cc1ccccc1)C(C)C)C(C)(C)C)C(C)(C)c1ccc(OC)cc1 [Compound 91, (S,E)-N-(benzylsulfonyl)-4-((S)-2-((S)-3-(4-methoxyphenyl)-3-methyl-2-(methylamino)butanamido)-N,3,3-trimethylbutanamido)-2,5-dimethylhex-2-enamide] | 9.96 | –
CN[C@@H](C(=O)N[C@H](C(=O)N(C)[C@H](/C=C(\C)C(=O)NS(=O)(=O)Cc1ccccc1)C(C)C)C(C)(C)C)C(C)(C)c1cccc(OC)c1 [Compound 92, (S,E)-N-(benzylsulfonyl)-4-((S)-2-((R)-3-(3-methoxyphenyl)-3-methyl-2-(methylamino)butanamido)-N,3,3-trimethylbutanamido)-2,5-dimethylhex-2-enamide] | 9.31 | –
CN[C@H](C(=O)N[C@H](C(=O)N(C)[C@H](/C=C(\C)C(=O)NS(=O)(=O)Cc1ccccc1)C(C)C)C(C)(C)C)C(C)(C)c1cccc(OC)c1 [Compound 93, (S,E)-N-(benzylsulfonyl)-4-((S)-2-((S)-3-(3-methoxyphenyl)-3-methyl-2-(methylamino)butanamido)-N,3,3-trimethylbutanamido)-2,5-dimethylhex-2-enamide] | 9.71 | –
CN[C@H](C(=O)N[C@H](C(=O)N(C)[C@H](/C=C(\C)C(=O)NS(=O)(=O)Cc1ccccc1)C(C)C)C(C)(C)C)C(C)(C)c1ccc(OCCO)cc1 [Compound 94, (S,E)-N-(benzylsulfonyl)-4-((S)-2-((S)-3-(4-(2-hydroxyethoxy)phenyl)-3-methyl-2-(methylamino)butanamido)-N,3,3-trimethylbutanamido)-2,5-dimethylhex-2-enamide] | 8.78 | –
CN[C@H](C(=O)N[C@H](C(=O)N(C)[C@H](/C=C(\C)C(=O)NS(=O)(=O)Cc1ccccc1)C(C)C)C(C)(C)C)C(C)(C)c1ccc(OCCSC(C)=O)cc1 [Compound 95, S-2-(4-((S)-4-((S)-1-(((S,E)-2,5-dimethyl-6-oxo-6-(benzylsulfonamido)hex-4-en-3-yl)(methyl)amino)-3,3-dimethyl-1-oxobutan-2-ylamino)-2-methyl-3-(methylamino)-4-oxobutan-2-yl)phenoxy)ethylethanethioate] | 9.54 | –
CN[C@H](C(=O)N[C@H](C(=O)N(C)[C@H](/C=C(\C)C(=O)NS(=O)(=O)Cc1ccccc1)C(C)C)C(C)(C)C)C(C)(C)c1ccc(OCCN)cc1 [Compound 96, (S,E)-4-((S)-2-((S)-3-(4-(2-aminoethoxy)phenyl)-3-methyl-2-(methylamino)butanamido)-N,3,3-trimethylbutanamido)-N-(benzylsulfonyl)-2,5-dimethylhex-2-enamide] | 7.99 | –
CN[C@H](C(=O)N[C@H](C(=O)N(C)[C@H](/C=C(\C)C(=O)NS(=O)(=O)c1ccccc1NC(=O)C(F)(F)F)C(C)C)C(C)(C)C)C(C)(C)c1ccccc1 [Compound 97, (S,E)-2,5-dimethyl-N-(2-(2,2,2-trifluoroacetamido)phenylsulfonyl)-4-((S)—N,3,3-trimethyl-2-((S)-3-methyl-2-(methylamino)-3-phenylbutanamido)butanamido)hex-2-enamide] | 9.51 | pEC50 [1]: 8.79
CN[C@H](C(=O)N[C@H](C(=O)N(C)[C@H](/C=C(\C)C(=O)NS(=O)(=O)c1ccccc1N)C(C)C)C(C)(C)C)C(C)(C)c1ccccc1 [Compound 98, (S,E)-N-(2-aminophenylsulfonyl)-2,5-dimethyl-4-((S)—N,3,3-trimethyl-2-((S)-3-methyl-2-(methylamino)-3-phenylbutanamido)butanamido)hex-2-enamide] | 10.11 | –
CN[C@H](C(=O)N[C@H](C(=O)N(C)[C@H](/C=C(\C)C(=O)NS(=O)(=O)Cc1cccc(C(F)(F)F)c1)C(C)C)C(C)(C)C)C(C)(C)c1ccccc1 [Compound 102, (S,E)-2,5-dimethyl-N-(3-(trifluoromethyl)benzylsulfonyl)-4-((S)—N,3,3-trimethyl-2-((S)-3-methyl-2-(methylamino)-3-phenylbutanamido)butanamido)hex-2-enamide] | 9.54 | –
CN[C@H](C(=O)N[C@H](C(=O)N(C)[C@H](/C=C(\C)C(=O)NS(=O)(=O)Cc1cccc(OC(F)(F)F)c1)C(C)C)C(C)(C)C)C(C)(C)c1ccccc1 [Compound 103, (S,E)-2,5-dimethyl-N-(3-(trifluoromethoxy)benzylsulfonyl)-4-((S)—N,3,3-trimethyl-2-((S)-3-methyl-2-(methylamino)-3-phenylbutanamido)butanamido)hex-2-enamide] | 9.68 | –
CN[C@H](C(=O)N[C@H](C(=O)N(C)[C@H](/C=C(\C)C(=O)NS(=O)(=O)Cc1ccc(Cl)c(Cl)c1)C(C)C)C(C)(C)C)C(C)(C)c1ccccc1 [Compound 104, (S,E)-N-(3,4-dichlorobenzylsulfonyl)-2,5-dimethyl-4-((S)—N,3,3-trimethyl-2-((S)-3-methyl-2-(methylamino)-3-phenylbutanamido)butanamido)hex-2-enamide] | 9.57 | –
CN[C@H](C(=O)N[C@H](C(=O)N(C)[C@H](/C=C(\C)C(=O)NS(=O)(=O)Cc1ccccc1C#N)C(C)C)C(C)(C)C)C(C)(C)c1ccccc1 [Compound 105, (S,E)-N-(2-cyanobenzylsulfonyl)-2,5-dimethyl-4-((S)—N,3,3-trimethyl-2-((S)-3-methyl-2-(methylamino)-3-phenylbutanamido)butanamido)hex-2-enamide] | 9.14 | pEC50 (Table 6, Compound Cytotoxicity on Jurkat): 9.12
CCc1cc(N)ccc1S(=O)(=O)NC(=O)/C(C)=C/[C@H](C(C)C)N(C)C(=O)[C@@H](NC(=O)[C@@H](NC)C(C)(C)c1ccccc1)C(C)(C)C [Compound 107, (S,E)-N-(4-amino-2-ethylphenylsulfonyl)-2,5-dimethyl-4-((S)—N,3,3-trimethyl-2-((S)-3-methyl-2-(methylamino)-3-phenylbutanamido)butanamido)hex-2-enamide] | 10.37 | pEC50 [3]: 10.37
CN[C@H](C(=O)N[C@H](C(=O)N(C)[C@H](/C=C(\C)C(=O)NS(=O)(=O)c1ccc(N)c(OC(F)(F)F)c1)C(C)C)C(C)(C)C)C(C)(C)c1ccccc1 [Compound 108, (S,E)-N-(4-amino-3-(trifluoromethoxy)phenylsulfonyl)-2,5-dimethyl-4-((S)—N,3,3-trimethyl-2-((S)-3-methyl-2-(methylamino)-3-phenylbutanamido)butanamido)hex-2-enamide] | 10.77 | pEC50 [3]: 10.77
